From US7977064B2, “Disheveled PDZ modulators” (Genentech, Inc., priority 2006, dated 2011)
“Also recorded” adds a separate entry of the source. No end group written: not given here.

Columns and labels:
Dvl1 = target: T1, Dvl1 (Homo sapiens, UniProt O14640); assay: GST pull-down from HEK293S cell extract, blot with anti-Dvl1; format: binding; conditions: HEK293 cell lysate, glutathione Sepharose-4B beads
T1 construct: All three endogenous Dvl could be detected in crude cell lysate of HEK293, and could be pulled down by GST-Dvlpep; endogenous in cells; host or cells: HEK293S
T1 sequence (O14640 1-695): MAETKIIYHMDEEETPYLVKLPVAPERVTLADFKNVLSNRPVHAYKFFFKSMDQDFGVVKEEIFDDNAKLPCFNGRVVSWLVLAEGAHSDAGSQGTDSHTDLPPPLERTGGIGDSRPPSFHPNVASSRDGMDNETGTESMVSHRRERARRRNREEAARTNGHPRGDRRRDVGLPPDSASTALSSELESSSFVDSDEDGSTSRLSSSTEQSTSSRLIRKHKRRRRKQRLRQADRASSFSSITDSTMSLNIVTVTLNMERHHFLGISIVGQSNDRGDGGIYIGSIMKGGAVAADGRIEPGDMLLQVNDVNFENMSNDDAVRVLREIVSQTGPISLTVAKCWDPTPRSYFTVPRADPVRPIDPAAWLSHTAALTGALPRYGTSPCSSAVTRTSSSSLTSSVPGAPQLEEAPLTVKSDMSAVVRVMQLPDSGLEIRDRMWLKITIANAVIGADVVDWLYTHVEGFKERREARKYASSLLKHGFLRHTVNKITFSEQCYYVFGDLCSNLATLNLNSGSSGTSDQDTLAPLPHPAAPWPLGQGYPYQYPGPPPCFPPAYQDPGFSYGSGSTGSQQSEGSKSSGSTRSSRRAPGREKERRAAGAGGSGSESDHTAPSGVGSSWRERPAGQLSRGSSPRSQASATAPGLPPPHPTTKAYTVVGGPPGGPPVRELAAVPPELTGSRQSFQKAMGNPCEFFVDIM
Protocol: (§1) Cell lysate of HEK293S cell was prepared and the whole protein concentration was normalized to 1 mg/ml. GST or GST-DVLpep fusion protein was bound to glutathione Sepharose-4B. Beads carrying protein (2-10 μg) were incubated with cell extract of HEK293S cells overnight at 4° C. The beads were washed with washing buffer (PBS, 0.5% BSA, 0.1% Tween 20) for 10 times and resuspended in SDS sample buffer, incubated at 90° C. for 10 min and the supernatant was subjected to SDS-PAGE. The crude cell extract was also subjected to the same SDS-PAGE. Dvl proteins were blotted by anti-Dvl1, anti-Dvl2, and anti-Dvl3.
(§2) Pull-down Assays—GST or GST-DVLpep fusion protein (GST fused with peptide GGGKWYGWL (SEQ ID NO: 182) at its C-terminus) was bound to glutathione Sepharose-4B following standard protocols, and bound proteins were quantified by SDS-PAGE using known amounts of BSA as standards. Beads carrying protein (2-10 μg) were incubated with cell extract of HEK293S cell overnight at 4° C. The cell extracts were prepared by lysing the cell in SJC lysis buffer. The whole protein concentration was determined by BCA protein kit (Promega; Madison, Wis.) and normalized to 1 mg/ml. […] Bound proteins were blotted by anti-Dvl1, anti-Dvl2 and anti-Dvl3 and analyzed by Li-core™.

Dvl3 = target: T2, Dvl3 (Homo sapiens, UniProt Q92997); assay: GST pull-down from HEK293S cell extract, blot with anti-Dvl3; format: binding; conditions: HEK293 cell lysate, glutathione Sepharose-4B beads
T2 construct: All three endogenous Dvl could be detected in crude cell lysate of HEK293, and could be pulled down by GST-Dvlpep; endogenous in cells; host or cells: HEK293S
T2 sequence (Q92997 1-716): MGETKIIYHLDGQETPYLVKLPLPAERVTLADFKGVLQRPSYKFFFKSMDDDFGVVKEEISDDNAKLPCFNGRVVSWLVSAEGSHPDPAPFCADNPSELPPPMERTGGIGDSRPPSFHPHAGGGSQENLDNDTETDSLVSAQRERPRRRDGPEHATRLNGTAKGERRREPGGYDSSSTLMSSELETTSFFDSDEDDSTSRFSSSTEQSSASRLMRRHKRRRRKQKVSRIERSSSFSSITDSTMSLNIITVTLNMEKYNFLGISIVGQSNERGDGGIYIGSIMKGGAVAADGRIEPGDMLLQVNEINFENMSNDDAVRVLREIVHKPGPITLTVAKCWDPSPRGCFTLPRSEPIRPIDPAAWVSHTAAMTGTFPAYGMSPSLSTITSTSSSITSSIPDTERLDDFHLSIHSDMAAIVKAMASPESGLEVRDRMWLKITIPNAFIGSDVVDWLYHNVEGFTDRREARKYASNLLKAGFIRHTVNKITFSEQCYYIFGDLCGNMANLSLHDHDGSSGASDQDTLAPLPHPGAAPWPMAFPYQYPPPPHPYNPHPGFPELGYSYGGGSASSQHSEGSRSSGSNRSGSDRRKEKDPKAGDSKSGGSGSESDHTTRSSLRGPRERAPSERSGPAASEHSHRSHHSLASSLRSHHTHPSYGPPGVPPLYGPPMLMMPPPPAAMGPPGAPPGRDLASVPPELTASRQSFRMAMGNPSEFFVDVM
Protocol: as §1, §2

Dvl2 = target: T3, Dvl2 (Homo sapiens, UniProt O14641); assay: GST pull-down from HEK293S cell extract, blot with anti-Dvl2; format: binding; conditions: HEK293 cell lysate, glutathione Sepharose-4B beads
T3 construct: All three endogenous Dvl could be detected in crude cell lysate of HEK293, and could be pulled down by GST-Dvlpep; endogenous in cells; host or cells: HEK293S
T3 sequence (O14641 1-736): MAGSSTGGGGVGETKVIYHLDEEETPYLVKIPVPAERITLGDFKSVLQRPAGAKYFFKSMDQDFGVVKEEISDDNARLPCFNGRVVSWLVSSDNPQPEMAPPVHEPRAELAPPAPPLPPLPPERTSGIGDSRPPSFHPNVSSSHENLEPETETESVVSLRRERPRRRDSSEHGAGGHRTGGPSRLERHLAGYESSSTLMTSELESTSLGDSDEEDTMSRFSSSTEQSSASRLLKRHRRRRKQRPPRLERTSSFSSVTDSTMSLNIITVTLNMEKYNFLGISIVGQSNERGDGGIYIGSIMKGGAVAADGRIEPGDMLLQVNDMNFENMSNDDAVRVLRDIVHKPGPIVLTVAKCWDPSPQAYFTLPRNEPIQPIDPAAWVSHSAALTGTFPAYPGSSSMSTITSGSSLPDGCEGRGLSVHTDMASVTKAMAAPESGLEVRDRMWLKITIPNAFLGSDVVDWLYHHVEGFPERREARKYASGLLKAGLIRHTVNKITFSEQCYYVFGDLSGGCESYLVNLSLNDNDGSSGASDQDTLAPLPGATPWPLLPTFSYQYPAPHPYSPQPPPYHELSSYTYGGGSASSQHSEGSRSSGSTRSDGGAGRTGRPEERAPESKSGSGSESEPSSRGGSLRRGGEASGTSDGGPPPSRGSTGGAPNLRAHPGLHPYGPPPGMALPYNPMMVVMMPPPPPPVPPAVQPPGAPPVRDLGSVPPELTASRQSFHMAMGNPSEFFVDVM
Protocol: as §1, §2

[1] = system: Wnt-stimulated β-catenin signaling in NCI-H1703 cells; assay: TOPGLOW luciferase reporter assay in NCI-H1703 cells; format: cell-based, human
Protocol: (§3) NCI-H1703 cells were transfected with the reporter plasmid pTOPGLOW combined with pRL reporter. Cell extract was prepared and the luciferase activity was measured. The relative luciferase unit is TopGlow luciferase activity divided by Renila luciferase activity. The fold of activation is the RLU ratio between the Wnt3a-stimulated or non-stimulated cells.
(§4) Cell culture, transfection and peptide treatment: HEK293 and H1703 were propagated according to the instructions from American Type Culture Collection. HEK293 cells were transfected with FuGene6 according to the manufacturer's instructions (Roche Molecular Biochemicals) at cell confluence of 50%. H1703 cells were transfected with Lipofectamine according to manufacturer's instruction at cell confluence of 80%. Cells were treated with medium containing peptide (5 μM-40 μM) 24 hours after transfection, and were routinely harvested 24 hours after the peptide treatment for additional assays.
(§5) TOPGLOW assay: Cells were plated in 12-well plates. The TOPGLOW reporter plasmid was transfected transiently into cells as described above. TCF-mediated gene transcription was determined by pTOPGLOW luciferase activity, which was normalized to relative luciferase activities of pRL reporter (cotransfected internal control). All experiments were performed duplicated.

[2] = system: Wnt3a-stimulated β-catenin signaling in HEK293S cells; assay: TOPGLOW luciferase reporter assay in HEK293S cells; format: cell-based
Protocol: as §3, with “HEK293S cells” for “NCI-H1703 cells”, “unit (RLU)” for “unit”, “Wnt3a-stimulated and” for “Wnt3a-stimulated or”, “cells. Cells were treated with either 10 μM (light bar) or 20 μM (dark bar) peptide ligands.” for “cells.”
as §4, §5

NCI-H1703 cells = assay: Alamar Blue cell viability and growth assay; format: cell-based, human
Protocol: Cells were seeded in black wall 96-well plate in triplicate and treated with various doses of peptide on Day 0 and were incubated at 37° C. in a humid incubator with 5% CO2. After 72 hours, Alamar Blue assay was performed.
Cells were seeded in black wall 96-well plate in triplicate and treated with 10 μM peptide or DMSO on Day 0, and the cell viability was measured by Alamar Blue assay after 24, 48 and 72 hours.
Cell viability assay: Cells were seeded in black wall 96-well plate in triplicate and treated with various doses of peptide on Day 0 and were incubated at 37° C. in a humid incubator with 5% CO2. After 72 hours, Alamar Blue assay was performed according to the instruction from manufacturer. For cell growth profile, the cells were seeded in black wall 96-well plate in triplicate and treated with 10 μM peptide or DMSO on Day 0, and cell viability was measured by Alamar Blue assay after 24, 48 and 72 hours.

[3] = system: β-catenin protein level in HEK293S cells; assay: Western blot of β-catenin protein level in HEK293S cells; format: cell-based; conditions: 20 μM peptide, 24 hours, compared to DMSO and PEN
Protocol: HEK293S cells were treated with 20 μM DVLp and PEN for 24 hours. Cell lysate was prepared and subjected to SDS-PAGE. β-catenin was blotted by poly-clonal anti-β-catenin (Genentech, Inc., South San Francisco).
as §4
Western Blot: Harvested cells were lysed with SIC lysis buffer, the supernatant was subjected to SDS-PAGE, which was transferred, blocked and blotted with proper primary antibody by a standard western blot protocol. Fluorescence labeled secondary antibodies (Alexa goat anti-mouse or anti-rabbit) were added and the results were analyzed by Li-core™.

Pull-down of endogenous Dvl1 (Dvl1) | Pull-down of endogenous Dvl3 (Dvl3) | Pull-down of endogenous Dvl2 (Dvl2) | Substance | Effect on Wnt-stimulated β-catenin signaling / Tcf-stimulated transcriptional activity (TopGlow) [1] | Effect on Wnt3a-stimulated transcriptional activity (TopGlow) ([2]; HEK293S cells, peptide up to 20 μM in medium) | Dose dependence of inhibition of Wnt-stimulated β-catenin signaling ([2]; HEK293S cells, two independent experiments) | Inhibition of Wnt3a-stimulated transcriptional activity ([2]; HEK293 cells, peptide 5-20 μM) | Cell growth profile (NCI-H1703 cells; NCI-H1703, 10 μM peptide, 24, 48 and 72 hours) | Cell viability with Wnt3a stimulation (NCI-H1703 cells; NCI-H1703, 72 hours, peptide dose of 5 μM) | Cell viability without Wnt3a stimulation (NCI-H1703 cells; NCI-H1703, 72 hours, peptide dose over 10 μM) | β-catenin level in whole cell lysate upon Wnt3a stimulation [3]
pulled down | pulled down | pulled down | GST-Dvlpep: GST fused with peptide GGGKWYGWL (SEQ ID NO: 182) at its C-terminus ({GST}-GGGKWYGWL) |  |  |  |  |  |  |  | 
 |  |  | Ac-RQIKIWFQNRRMKWKKKWYGWL [DVLp_C] | inhibited by DVLp_C treatment significantly; also recorded: blocked the Wnt-stimulated increase in β-catenin signaling | inhibited Wnt3a-stimulated transcriptional activity significantly; also recorded: significantly blocked the Wnt-stimulated increase in β-catenin signaling | dose-dependent | about 50% | much slower than that of DMSO or PEN-treated cells; also recorded: effectively suppressed the cell growth | lower viability of DVLp_C-treated cells compared to PEN-treated cells | much lower viability than PEN-treated cells | significantly lower β-catenin levels; also recorded: reduced the Wnt-stimulated increase in β-catenin protein level
